Data from US20240116985A1, “STAPLED PEPTIDES AND METHODS THEREOF” (priority 2020, published 2024).
Read-outs that look alike come from different tables or passages of the source.

What was measured:
[1] = target: T1, full-length beta-Catenin (Uniprot ID P35222) (Homo sapiens, UniProt P35222); assay: Fluorescence polarization IC50 (beta-catenin / 5FAM-TCF4 10-53 competition); format: binding
T1 construct: 10 nM full-length beta-Catenin (Uniprot ID P35222)
T1 sequence (P35222 1-781): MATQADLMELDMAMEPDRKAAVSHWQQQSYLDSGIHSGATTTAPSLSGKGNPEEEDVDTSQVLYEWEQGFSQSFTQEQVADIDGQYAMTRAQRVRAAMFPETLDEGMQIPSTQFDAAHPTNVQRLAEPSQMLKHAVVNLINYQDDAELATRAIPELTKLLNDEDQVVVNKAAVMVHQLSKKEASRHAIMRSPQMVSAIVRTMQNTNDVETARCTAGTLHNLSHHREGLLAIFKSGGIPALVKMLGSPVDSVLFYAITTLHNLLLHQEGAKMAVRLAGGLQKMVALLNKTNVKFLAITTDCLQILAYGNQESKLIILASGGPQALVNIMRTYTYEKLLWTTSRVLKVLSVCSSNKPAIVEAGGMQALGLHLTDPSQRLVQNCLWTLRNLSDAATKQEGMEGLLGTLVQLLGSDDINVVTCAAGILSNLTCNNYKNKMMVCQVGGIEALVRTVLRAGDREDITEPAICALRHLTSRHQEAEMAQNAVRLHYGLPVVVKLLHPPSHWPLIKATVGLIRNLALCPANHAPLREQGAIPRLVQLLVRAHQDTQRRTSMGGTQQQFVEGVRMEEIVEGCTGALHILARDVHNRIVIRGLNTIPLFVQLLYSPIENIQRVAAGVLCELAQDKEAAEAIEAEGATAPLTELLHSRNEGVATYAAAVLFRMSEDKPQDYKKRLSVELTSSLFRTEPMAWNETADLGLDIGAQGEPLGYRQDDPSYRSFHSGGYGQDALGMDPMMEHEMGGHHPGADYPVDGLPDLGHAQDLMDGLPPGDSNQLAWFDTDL

CHI Log D procedure = format: physicochemical; details: for CHI Log D / logD: pH 7.4; for chromatographic logD: pH 7.4, CHI Log D
[2] = fluorescence polarization, read-out: beta-Catenin FP IC50
[3] = fluorescence polarization, beta-catenin, read-out: FP EC50

Row | IC50 [1, 2] [nM] | IC50 ([1]; read-out: FP EC50) [nM] | CHI Log D (CHI Log D procedure) | SMILES | other results
1 | – | – | 1.975 | CC(=O)N1CCC[C@]12CC=CCCCC1(CCCC=CCCCOC(=O)N3CC[C@@](C(=O)N[C@@H](Cc4ccsc4)C(=O)N[C@@H](Cc4csc5ccccc45)C(=O)N[C@@H](Cc4ccc(O)cc4)C(N)=O)(C3)NC(=O)[C@H](CC(N)=O)NC(=O)[C@H](Cc3ccccc3)NC(=O)[C@H](C)NC(=O)[C@H](C)NC(=O)[C@H](CN(CC(=O)O)CC(F)(F)F)NC(=O)[C@H](CC(=O)O)NC1=O)NC(=O)[C@H](CC(C)(C)C)NC(=O)[C@H](CC(=O)O)NC2=O (stereo partly drawn) [I-952, Ac-PL3-Asp-Npg-B5-Asp-TfeGA-Ala-Ala-Phe-Asn-PyrS2-3Thi-BztA-Tyr-NH2] | IC50 [1, 3]: 1210 nM; IC50 ([1]; read-out: beta-Catenin FP IC50): 1210 nM
2 | 55 | 55 | 2.595 | CC[C@H](C)[C@@H]1NC(=O)[C@H](CC(=O)O)NC(=O)[C@]2(CC=CCCCC3(CCCC=CCCCCCC[C@@](C)(C(=O)N[C@@H](Cc4ccccc4)C(=O)N[C@@H](Cc4csc5ccccc45)C(=O)N[C@@H](CCC(N)=O)C(N)=O)NC(=O)[C@H](CCC(N)=O)NC(=O)[C@H](Cc4ccccc4)NC(=O)[C@H](C)NC(=O)[C@H](C)NC(=O)[C@H](CN(CC(=O)O)CC(F)(F)F)NC(=O)[C@H](CC(=O)O)NC3=O)NC1=O)CCCN2C(C)=O (stereo partly drawn) [I-611, Ac-PL3-Asp-Ile-B5-Asp-TfeGA-Ala-Ala-Phe-Gln-S8-Phe-BztA-Gln-NH2] | IC50 ([1]; read-out: bCat FP IC50): 55 nM; logD (CHI Log D procedure): 2.6
3 | 4220 | 4220 | 2.121 | CC[C@H](C)[C@H](NC(=O)[C@H](CCC(N)=O)NC(=O)[C@H](Cc1csc2ccccc12)NC(=O)[C@H](Cc1ccccc1)NC(=O)[C@]1(C)CCCCCCC=CCCCC2(CCCC=CC[C@]3(CCCN3C(C)=O)C(=O)N[C@@H](CC(=O)O)C(=O)N[C@@H](CC(C)C)C(=O)N2)C(=O)N[C@@H](CC(=O)O)C(=O)N[C@@H](CCC(=O)O)C(=O)N[C@@H](C)C(=O)N[C@@H](C)C(=O)N[C@@H](Cc2ccccc2)C(=O)N[C@@H](CC(N)=O)C(=O)N1)C(N)=O (stereo partly drawn) [I-732, Ac-PL3-Asp-Leu-B5-Asp-Glu-Ala-Ala-Phe-Asn-S8-Phe-BztA-Gln-Ile-NH2] | –
4 | 183 | – | – | CC(=O)N1CCC[C@]12CC=CCCCC1(CCCC=CCCCCCC[C@@](C)(C(=O)N[C@@H](Cc3ccccc3)C(=O)N[C@@H](Cc3csc4ccccc34)C(=O)N[C@@H](CCC(N)=O)C(N)=O)NC(=O)[C@H](CC(N)=O)NC(=O)[C@H](Cc3ccc(C)cc3)NC(=O)[C@H](C)NC(=O)[C@H](C)NC(=O)[C@H](CCC(=O)O)NC(=O)[C@H](CC(=O)O)NC1=O)NC(=O)[C@H](C)NC(=O)[C@H](CC(=O)O)NC2=O (stereo partly drawn) [I-459, Ac-PL3-Asp-Ala-B5-Asp-Glu-Ala-Ala-4MeF-Asn-S8-Phe-BztA-Gln-NH2] | chromatographic logD (CHI Log D procedure): 2.06
5 | 54 | 54 | 2.587 | CC[C@H](C)[C@@H]1NC(=O)[C@H](CC(=O)O)NC(=O)[C@]2(CC=CCCCC3(CCCC=CCCCCCC[C@@](C)(C(=O)N[C@@H](Cc4ccccc4)C(=O)N[C@@H](Cc4csc5ccccc45)C(=O)N[C@@H](CCC(N)=O)C(N)=O)NC(=O)[C@H](CCC(N)=O)NC(=O)[C@H](Cc4ccccc4)NC(=O)[C@H](C)NC(=O)[C@H](C)NC(=O)[C@H](CN(CC(=O)O)CC(F)(F)F)NC(=O)[C@H](CC(=O)O)NC3=O)NC1=O)CCCN2C(C)=O (stereo partly drawn) [I-610, Ac-PL3-Asp-Ile-B5-Asp-TfeGA-Ala-Ala-Phe-Gln-S8-Phe-BztA-Gln-NH2] | IC50 ([1]; read-out: bCat FP IC50): 54 nM; logD (CHI Log D procedure): 2.6
6 | 56 | 56 | 2.219 | CC[C@@H]1NC(=O)[C@H](CC(=O)O)NC(=O)[C@]2(CC=CCCCC3(CCCC=CCCCCCC[C@@](C)(C(=O)N[C@@H](Cc4ccccc4)C(=O)N[C@@H](Cc4csc5ccccc45)C(=O)N[C@@H](Cc4c[nH]cn4)C(N)=O)NC(=O)[C@H](CCC(N)=O)NC(=O)[C@H](Cc4ccccc4)NC(=O)[C@H](C)NC(=O)[C@H](C)NC(=O)[C@H](CCC(=O)O)NC(=O)[C@H](CC(=O)O)NC3=O)NC1=O)CCCN2C(C)=O (stereo partly drawn) [I-570, Ac-PL3-Asp-Abu-B5-Asp-Glu-Ala-Ala-Phe-Gln-S8-Phe-BztA-His-NH2] | –
7 | 5 | – | 2.117 | CC(=O)N1CCC[C@]12CC=CCCCC1(CCCC=CCCCOC(=O)N3CC[C@@](C(=O)N[C@@H](Cc4ccsc4)C(=O)N[C@@H](Cc4csc5ccccc45)C(=O)N[C@@H](Cc4c[nH]cn4)C(N)=O)(C3)NC(=O)[C@H](CC(N)=O)NC(=O)[C@H](Cc3ccccc3)NC(=O)[C@H](C)NC(=O)[C@H](C)NC(=O)[C@H](CC(=O)O)NC(=O)[C@H](CC(=O)O)NC1=O)NC(=O)[C@H](CC(C)(C)C)NC(=O)[C@H](CC(=O)O)NC2=O (stereo partly drawn) [I-695, Ac-PL3-Asp-Npg-B5-Asp-Asp-Ala-Ala-Phe-Asn-PyrS2-3Thi-BztA-His-NH2] | –
8 | 73 | 73 | 2.158 | CC[C@@H]1NC(=O)[C@H](CC(=O)O)NC(=O)[C@]2(CC=CCCCC3(CCCC=CCCCCCC[C@@](C)(C(=O)N[C@@H](Cc4ccccc4)C(=O)N[C@@H](Cc4csc5ccccc45)C(=O)N[C@@H](CCC(N)=O)C(N)=O)NC(=O)[C@H](CCC(N)=O)NC(=O)[C@H](Cc4ccccc4)NC(=O)[C@H](C)NC(=O)[C@H](C)NC(=O)[C@H](CCC(=O)O)NC(=O)[C@H](CC(=O)O)NC3=O)NC1=O)CCCN2C(C)=O (stereo partly drawn) [I-568, Ac-PL3-Asp-Abu-B5-Asp-Glu-Ala-Ala-Phe-Gln-S8-Phe-BztA-Gln-NH2] | –

Second part, the molecule before the results:

Row | SMILES | IC50 [1, 2] [nM] | IC50 ([1]; read-out: FP EC50) [nM] | CHI Log D (CHI Log D procedure) | other results
9 | CC(=O)N1CCC[C@]12CC=CCCCC1(CCCC=CCCCCCC[C@@](C)(C(=O)N[C@@H](Cc3ccccc3)C(=O)N[C@@H](Cc3csc4ccccc34)C(=O)N[C@@H](CCC(N)=O)C(N)=O)NC(=O)[C@H](CC(N)=O)NC(=O)[C@H](Cc3ccccc3)NC(=O)[C@H](C)NC(=O)[C@H](C)NC(=O)[C@H](CC(=O)O)NC(=O)[C@H](CC(=O)O)NC1=O)NC(=O)[C@H](CCC(C)C)NC(=O)[C@H](CC(=O)O)NC2=O (stereo partly drawn) [I-547, Ac-PL3-Asp-hLeu-B5-Asp-Asp-Ala-Ala-Phe-Asn-S8-Phe-BztA-Gln-NH2] | 43 | 43 | 2.45 | –
10 | COc1ccccc1C[C@H](NC(=O)[C@]1(C)CCCCCCC=CCCCC2(CCCC=CC[C@]3(CCCN3C(C)=O)C(=O)N[C@@H](CC(=O)O)C(=O)N[C@@H](C)C(=O)N2)C(=O)N[C@@H](CC(=O)O)C(=O)N[C@@H](CCC(=O)O)C(=O)N[C@@H](C)C(=O)N[C@@H](C)C(=O)N[C@@H](Cc2ccccc2)C(=O)N[C@@H](CCC(N)=O)C(=O)N1)C(=O)N[C@@H](Cc1csc2ccccc12)C(=O)N[C@@H](CCC(N)=O)C(N)=O (stereo partly drawn) [I-525, Ac-PL3-Asp-Ala-B5-Asp-Glu-Ala-Ala-Phe-Gln-S8-2OMeF-BztA-Gln-NH2] | 196 | 196 | 2.019 | –
11 | CC(=O)N1CCC[C@]12CC=CCCCC1(CCCC=CCCCCCC[C@@](C)(C(=O)N[C@@H](Cc3ccccc3)C(=O)N[C@@H](Cc3csc4ccccc34)C(=O)N[C@@H](CCC(N)=O)C(N)=O)NC(=O)[C@H](CCC(N)=O)NC(=O)[C@H](Cc3ccccc3)NC(=O)[C@H](C)NC(=O)[C@H](C)NC(=O)[C@H](CCC(=O)O)NC(=O)[C@H](CC(=O)O)NC1=O)NC(=O)[C@H](CCCCNC(=O)CN=[N+]=[N-])NC(=O)[C@H](CC(=O)O)NC2=O (stereo partly drawn) [I-590, Ac-PL3-Asp-[AzAc]Lys-B5-Asp-Glu-Ala-Ala-Phe-Gln-S8-Phe-BztA-Gln-NH2] | – | 45 | 2.152 | –
12 | CC(=O)N1CCC[C@]12CC=CCCCC1(CCCC=CCCCOC(=O)N3CC[C@@](C(=O)N[C@@H](Cc4ccsc4)C(=O)N[C@@H](Cc4csc5ccccc45)C(=O)N[C@@H](CCC(N)=O)C(N)=O)(C3)NC(=O)[C@H](CO)NC(=O)[C@H](Cc3ccccc3)NC(=O)[C@H](C)NC(=O)[C@H](C)NC(=O)[C@H](Cc3cccc(C(=O)O)c3)NC(=O)[C@H](CC(=O)O)NC1=O)NC(=O)[C@H](CC(C)(C)C)NC(=O)[C@H](CC(=O)O)NC2=O (stereo partly drawn) [I-979, Ac-PL3-Asp-Npg-B5-Asp-3COOHF-Ala-Ala-Phe-Ser-PyrS2-3Thi-BztA-Gln-NH2] | – | – | 1.809 | IC50 [1, 3]: 240 nM; IC50 ([1]; read-out: beta-Catenin FP IC50): 240 nM
13 | CC(=O)N1CCC[C@]12CC=CCCCC1(CCCC=CCCCCCC[C@@](C)(C(=O)N[C@@H](Cc3ccccc3)C(=O)N[C@@H](Cc3c[nH]c4ccccc34)C(=O)N[C@@H](CCC(N)=O)C(N)=O)NC(=O)[C@H](C(C)C)NC(=O)[C@H](Cc3ccccc3)NC(=O)[C@H](C)NC(=O)[C@H](C)NC(=O)[C@H](CCC(=O)O)NC(=O)[C@H](CC(=O)O)NC1=O)NC(=O)[C@H](C)NC(=O)[C@H](CC(=O)O)NC2=O (stereo partly drawn) [I-123, Ac-PL3-Asp-Ala-B5-Asp-Glu-Ala-Ala-Phe-Val-S8-Phe-Trp-Gln-NH2] | – | – | – | IC50 ([1]; Table E2-1, read-out: beta-Catenin FP IC50): 2110 nM; chromatographic logD (CHI Log D procedure): 1.98
